This data set can be described thus: Solubility of the OSC small molecule and binder in aromatic hydrocarbon and further solvents. It counts as physicochemical. From the text:
The aromatic hydrocarbon solvent of the multi-solvent formulation is capable of dissolving at least 0.5% by weight of the polycrystalline small molecule of the present invention, more preferably greater than 1%.
The further (subsidiary) solvent(s) are preferably less solubilising of the polycrystalline small molecule and typically dissolve less than 0.2% by weight of the small molecule OSC, more preferably less than 0.1% by weight, more preferably less than 0.05% by weight.
Preferably, the semiconducting binder of the invention is essentially insoluble in the further solvent.

Where only a bound is given, the exact number is not on record here.

For `CC[Si](C#Cc1c2cc3c(C)ccc(C)c3cc2c(C#C[Si](CC)(CC)CC)c2cc3c(C)ccc(C)c3cc12)(CC)CC` [1,4,8,11-tetramethyl, 6,13-bis-(triethylsilylethynyl)pentacene], the Solubility (in 2-Bromomesitylene) was 1.4% w/v; the Solubility (in Bromobenzene) was 3.5% w/v; the Solubility (in Cyclohexane) is given as <0.1%; the Solubility (in Mesitylene) is given as ~1% w/v; the Solubility entry (in Methyl ethyl ketone (MEK)) is “Insol”; the Solubility entry (in Propan-2-ol) is “Insol”. For the same molecule, the Solubility (in Tetralin) came to 0.6% w/v, the Solubility (in n-Heptane) is <0.1% and the Solubility (in n-Octane) is recorded as <0.1%.

(Values after US20160359116A1, “Organic Semiconductor Formulations” (SMARTKEM LIMITED, priority 2012, published 2016).)
